Ends that are not written are not given here.
Key:
[1] = tested on: CD8+ T cells of healthy donors; test: Priming of high-avidity CD8+ T cells with low density pMHC beads, tetramer staining and FACS sorting; format: cell-based, human; conditions: for establishment of specific high-avidity T-cell lines by FACS: healthy donors; for in vitro immunogenicity with low pMHC density aAPCs: low density beads (2 ng relevant pMHC)
Description: Dependent on their ability to be activated by high- or low-density antigen, T cell lines can be divided into high- or low-avidity. As it has been shown before (Walter, S, et al., 2003, J. Immunol., 171, 4974-4978), human high-avidity CTLs can be raised successfully by using less peptide for activation compared to low-avidity CD8+ T cells.
To determine the ability of peptides to generate high-avidity CTL lines, isolated human CD8+ cells were primed and expanded by repeated in vitro stimulations with beads coated with low-density pMHC (peptide-MHC-complex) and anti-CD28 antibody in the presence of IL-12 and IL-2. After three stimulations, a fraction of in vitro primed T cells were pMHC-tetramer stained and detected by cytometric analysis. Tetramer-positive cells of each donor were pooled afterwards according to the antigen specificity, stained with pMHC-tetramer and human anti-CD8-FITC antibody and finally subjected to FACS sorting on a FACSAria. Sorted cells were cultured and expanded in the presence of irradiated feeder cells, cytokines and mitogen. As a read-out for the generation of primed high avidity antigen specific cells, pMHC-tetramer staining was performed. In order to determine their functionality, IFNγ production was assayed by ELISPOT and killing of tumor cell lines was examined using a cytotoxicity assay based on live/dead staining after restimulation of the cells with the corresponding peptide and tumor cell lines.
In vitro stimulations using artificial antigen presenting cells (aAPC) loaded with peptide-MHC complex (pMHC) and anti-CD28 antibody were conducted as described above. The only difference to the method described above was the fact that stimulations were performed with beads loaded with 2 ng relevant plus 200 ng irrelevant library (pMHC) MHC (low density beads) instead of 200 ng relevant MHC (high density beads). Thus, predominantly high avidity T cells were generated for deeper validation of peptides. After three stimulations, a fraction of in vitro primed T cells was pMHC-tetramer stained and detected by cytometric analysis. […] Tetramer-positive cells of each donor were pooled afterwards according to the antigen specificity, stained with the corresponding pMHC-tetramer and human anti-CD8-FITC antibody clone SK1 and finally subjected to FACS sorting on a FACSAria (BD Biosciences, Germany). […] As a read-out for the generation of primed high avidity antigen specific cells, pMHC-tetramer staining was performed as above and analyzed on a four-color FACSCalibur (BD Biosciences, Germany).

[2] = tested on: sorted CD8+ NOX-001 tetramer+ T-cell line; test: IFNγ ELISPOT functionality test of sorted specific CD8+ T-cell line; format: cell-based, human; conditions: FIG. 8
Description: FIGS. 8A and 8B depict the ELISPOT analysis of IFNγ production by T-cell lines upon in vitro restimulation with the NOX-001 peptide. FIG. 8A is T-cell line 7+ from donor HBC-154 (sorted CD8+ NOX-001 tetramer+). FIG. 8B is T-cell line 7—from donor HBC-154 (sorted CD8+ NOX-001 tetramer+).
Sorted CD8+ NOX-001 tetramer+(A.) and CD8+ NOX-001 tetramer-(B.) cells were analysed by IFNγ ELISPOT after restimulation with irrelevant (MLA-001) (upper wells) and relevant (NOX-001) (lower wells) peptide (10 μg/ml). Numbers indicate the count of positive spots.
To determine their functionality, IFNγ production was assessed by ELISPOT (IFNγ ELISPOT Set, BD, Germany) after restimulation of the cells with the corresponding peptide. Additionally, cell-mediated cytotoxicity of specific CTLs was investigated by killing of tumor cell lines using the LIVE/DEAD cell-mediated cytotoxicity Kit (L7010, Invitrogen, Germany). Both assays were performed according to manufacturer's instructions, except noted otherwise.

Row | Sequence | establishment of specific high-avidity T-cell lines by FACS [1] | in vitro immunogenicity with low pMHC density aAPCs [1] | IFNγ production of T-cell line after restimulation with peptide [2]
1 | ILAPVILYI [NOX-001] | specific T-cell lines could be established by FACS | immunogenic in vitro | specifically expressing IFNγ after restimulation with this peptide
2 | ALFVRLLALA [TGFBI-001] | specific T-cell lines could be established by FACS | immunogenic in vitro | –

— patent US9950048B2, “Immunogenic epitopes for immunotherapy” (immatics biotechnologies GmbH, priority 2007, dated 2018)
